Target: T1, Axl (Homo sapiens, UniProt P30530+Q14393)
T1 construct: extracellular and trans-membrane domain of Axl fused to IFN-γR1 intracellular domain; with Gas6
Test: Gas6-induced hAxl/IFN-γR1 CHO reporter (pSTAT1) inhibition; sAxl-Gas6 pull-down partially inhibited
Type: cell-based

T1 sequence (P30530 26-472 limits assumed): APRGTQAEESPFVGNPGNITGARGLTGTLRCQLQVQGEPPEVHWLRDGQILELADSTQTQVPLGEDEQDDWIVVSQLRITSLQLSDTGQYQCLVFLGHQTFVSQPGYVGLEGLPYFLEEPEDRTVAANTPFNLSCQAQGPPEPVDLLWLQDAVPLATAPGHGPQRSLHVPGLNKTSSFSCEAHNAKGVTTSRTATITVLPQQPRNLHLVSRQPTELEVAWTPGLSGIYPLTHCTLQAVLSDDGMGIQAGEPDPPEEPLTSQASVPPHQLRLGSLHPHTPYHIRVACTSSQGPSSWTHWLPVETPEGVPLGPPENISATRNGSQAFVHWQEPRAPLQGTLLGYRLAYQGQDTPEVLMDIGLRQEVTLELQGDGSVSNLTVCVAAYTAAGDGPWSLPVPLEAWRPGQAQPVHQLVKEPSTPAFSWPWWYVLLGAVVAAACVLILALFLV
T1 sequence (Q14393 31-678): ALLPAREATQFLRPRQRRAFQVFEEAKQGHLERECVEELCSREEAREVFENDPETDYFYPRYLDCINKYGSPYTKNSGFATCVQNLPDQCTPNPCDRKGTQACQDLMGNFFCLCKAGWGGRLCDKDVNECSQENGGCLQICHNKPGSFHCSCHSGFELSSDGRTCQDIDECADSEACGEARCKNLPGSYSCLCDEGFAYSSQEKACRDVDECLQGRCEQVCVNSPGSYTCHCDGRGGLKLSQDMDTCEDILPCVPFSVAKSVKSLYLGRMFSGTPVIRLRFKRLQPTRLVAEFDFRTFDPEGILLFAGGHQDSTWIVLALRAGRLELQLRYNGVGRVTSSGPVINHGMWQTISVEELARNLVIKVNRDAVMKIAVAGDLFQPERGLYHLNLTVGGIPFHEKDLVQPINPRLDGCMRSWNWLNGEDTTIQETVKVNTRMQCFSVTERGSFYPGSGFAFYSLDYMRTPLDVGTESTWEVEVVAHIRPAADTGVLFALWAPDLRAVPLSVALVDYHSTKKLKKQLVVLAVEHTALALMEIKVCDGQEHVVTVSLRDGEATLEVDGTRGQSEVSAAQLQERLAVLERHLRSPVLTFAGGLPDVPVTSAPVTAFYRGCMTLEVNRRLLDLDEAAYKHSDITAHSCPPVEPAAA

IC50: low micromolar
SMILES: Cc1noc(C)c1CSc1ccccc1C(=O)N1CCN(c2cccc(C(F)(F)F)c2)CC1 [RU-302]
